These results are taken from patent publication US20070155757A1, “Use of pyrimidine compounds in the preparation of parasiticides” (priority 2004, published 2007).

What is called melting point is the temperature, or range, at which the solid turns liquid. For the molecule `NC(=O)Cc1c(Oc2ccc(F)c(C(F)(F)F)c2)ncnc1Oc1ccc(F)c(C(F)(F)F)c1` [Compound 1.29, [4,6-bis-(4-fluoro-3-(trifluoromethyl)phenoxy)]-pyrimidin-5-yl-acetamide], the melting point was in the range of 122 to 124 °C.
The result for `Nc1c(Oc2cccc(F)c2)ncnc1Oc1cccc(F)c1` [Compound 1.4, 4,6-bis-(3-fluorophenoxy)-pyrimidin-5-ylamine] reads 110 to 112 °C; that for `Cc1cc(Oc2ncnc(Oc3ccc(F)c(C)c3)c2N)ccc1F` [Compound 1.20, 4,6-bis-(4-fluoro-3-methylphenoxy)-pyrimidin-5-ylamine], 155 to 156 °C.
